According to patent US9510598B2, “Nitrogen-containing heterocyclic compounds for plant disease control” (BAYER CROPSCIENCE AG, priority 2012, dated 2016):
Several values for one entry are separate records, joined by “and”; a condition that tells them apart may be missing. Equal values may be shown once. Read-outs that look alike come from different tables or passages of the source.

Legend:
[1] = tested on: Botrytis cinerea; experiment: In vivo preventive test on Botrytis cinerea (grey mould); conditions: 500 ppm; gherkin plants sprayed 24 hours before contamination; grading 4-5 days after contamination vs control plants
Description: Gherkin plants (“Vert petit de Paris” variety), sown in starter cups on a 50/50 peat soil-pozzolana substrate and grown at 24° C., are treated at the Z11 cotyledon stage by spraying with the active ingredient prepared as described above. Plants, used as controls, are treated with the mixture of acetone/tween/DMSO/water not containing the active material. After 24 hours, the plants are contaminated by spraying the cotyledons with an aqueous suspension of cryopreserved Botrytis cinerea spores (50 000 spores per ml). The spores are suspended in a nutrient solution composed of 10 g/L of PDB, 50 g/L of D-Fructose, 2 g/L of NH4NO3 and 1 g/L of KH2PO4. The contaminated gherkin plants are incubated at 17° C. and at 80% relative humidity. Grading (% of efficacy) is carried out 4-5 days after the contamination, in comparison with the control plants.

[2] = assay type: physicochemical; conditions: for chromatographic logP: pH 2.7
[3] = tested on: Sphaerotheca fuliginea; experiment: In vivo preventive test on Sphaerotheca fuliginea (powdery mildew on cucurbits); conditions: 500 ppm; gherkin plants sprayed 24 hours before contamination; grading 12 days after contamination vs control plants
Description: Gherkin plants (“Vert petit de Paris” variety), sown in starter cups on a 50/50 peat soil-pozzolana substrate and grown at 24° C., are treated at the Z11 cotyledon stage by spraying with the active ingredient prepared as described above. Plants, used as controls, are treated with the mixture of acetone/tween/DMSO/water not containing the active material. After 24 hours, the plants are contaminated by spraying the cotyledons with an aqueous suspension of Sphaerotheca fuliginea spores (100 000 spores per ml). The spores are collected from infected plants. […] Grading (% of efficacy) is carried out 12 days after the contamination, in comparison with the control plants.

[4] = tested on: Septoria tritici; experiment: In vivo preventive test on Septoria tritici (leaf spot on wheat); conditions: 500 ppm; wheat plants sprayed 24 hours before contamination; grading 21 to 28 days after contamination vs control plants
Method in brief: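 Scipion wheat at 1-leaf stage sprayed with compound, controls receiving acetone/tween/DMSO/water vehicle; 24 h later leaves inoculated with Septoria tritici spores (500 000 spores per ml). Efficacy (%) graded versus control plants 21 to 28 days after contamination.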

[5] = HPLC on reversed phase columns, method [a]: pH 2.7, 0.1% formic acid in water / acetonitrile, linear gradient 10% to 95% acetonitrile
[6] = method [a]: HPLC/LC-MS on reversed phase at pH 2.7, 0.1% formic acid in water / acetonitrile, linear gradient 10% to 95% acetonitrile
[7] = method [a]: HPLC/LC-MS on reversed phase at pH 2.7, 0.1% formic acid in water / acetonitrile, gradient 10% to 95% acetonitrile

| log P [2, 5] | Log P ([2]; method [a]: HPLC/LC-MS on reversed phase at pH 2.7, 0.1% formic acid in water and acetonitrile, linear gradient 10% to 95% acetonitrile) | log P [2, 6] | chromatographic logP [2] | log P [2, 7] | log P ([2]; HPLC on reversed phase columns, method [a]: pH 2.7, 0.1% formic acid in water and acetonitrile, linear gradient 10% to 95% acetonitrile) | SMILES | % of efficacy (protection) [1] [%] | % of efficacy (protection) [3] | % of efficacy (protection) [4] [%] |
| --- | --- | --- | --- | --- | --- | --- | --- | --- | --- |
| 2.58[a] | – | – | – | – | – | C#Cc1cnc2ccc(C3=NOC(C)(C(=O)NC(CC)COC)C3)cc2c1 (centres unmarked) [compound 524] | 100 | 93% | 93 |
| 2.96[a] | – | – | – | – | – | C#Cc1cnc2c(Cl)cc(C3=NOC(C)(C(=O)NC(C)C)C3)cc2c1 (centres unmarked) [compound 543] | 100 | 100% | 100 |
| 2.84[a] | – | – | – | – | – | C#Cc1cnc2c(Cl)cc(C3=NOC(C)(C(=O)NCC4COC(C)(C)O4)C3)cc2c1 (centres unmarked) [compound 559] | 95 | 85% | 100 |
| – | – | 2.64^[a] | – | – | – | C#Cc1cnc2ccc(C3=NOC(C)(C(=O)NCc4cnn(Cc5ccccc5)c4)C3)cc2c1 (centres unmarked) [compound 185] | 95 | 78% | 86 |
| – | – | – | 2.61 | – | – | CC(C)NC(=O)C1(C)CC(c2ccc3ncc(Cl)cc3c2)=NO1 (centres unmarked) [Compound No. 55] | 99 | 94% and 98% | 100 |
| 2.28[a] | – | – | – | – | – | C#Cc1cnc2ccc(C3=NOC(OC)(C(=O)NC(C)CC(=O)OC)C3)cc2c1 (centres unmarked) [compound 512] | 98 | 97% | 97 |
| 2.64[a] | – | – | – | – | – | C#Cc1cnc2ccc(C3=NOC(C(=O)NCC4COC(C)(C)O4)(C(F)F)C3)cc2c1 (centres unmarked) [compound 614] | 100 | 92% | 97 |
| – | – | – | – | 2.43[a] | – | C#Cc1cnc2ccc(C3=NOC(C)(C(=O)NOC(C)C4CC4)C3)cc2c1 (centres unmarked) [compound 471] | 89 | 98% | 97 |
| 3.15[a] | – | – | – | – | – | C#Cc1cnc2c(Cl)cc(C3=NOC(C)(C(=O)NC4CCC4)C3)cc2c1 (centres unmarked) [compound 544] | 100 | 98% | 100 |
| 1.84[a] | – | – | – | – | – | C#Cc1cnc2ccc(C3=NOC(C)(C(=O)NC)C3)cc2c1 (centres unmarked) [compound 531] | 100 | 98% | 100 |
| – | – | 3.13^[a] | – | – | – | CCC1(C(=O)NC(C)C)CC(c2ccc3ncc(Br)cc3c2)=NO1 (centres unmarked) [compound 66] | 100 | 98% | 100 |
| – | – | 2.35^[a] | – | – | – | C#Cc1cnc2ccc(C3=NOC(C)(C(=O)NCC4COC(C)(C)O4)C3)cc2c1 (centres unmarked) [compound 125] | 100 | 98% | 100 |
| – | – | – | 2.88 | – | – | CC(C)NC(=O)C1(C)CC(c2ccc3ncc(I)cc3c2)=NO1 (centres unmarked) [Compound No. 38, 3-(3-iodoquinolin-6-yl)-N-isopropyl-5-methyl-4,5-dihydro-1,2-oxazole-5-carboxamide] | 100 | 97% | 100 |
| – | – | – | – | 2.08[a] | – | C#Cc1cnc2ccc(C3=NOC(OC)(C(=O)N(O)C(C)C)C3)cc2c1 (centres unmarked) [compound 475] | 100 | 88% | 83 |
| – | – | – | – | 1.98[a] | – | C#Cc1cnc2ccc(C3=NOC(C)(C(=O)Nc4cnn(C)c4)C3)cc2c1 (centres unmarked) [compound 462] | 98 | 98% | 100 |
| 2.50[a] | – | – | – | – | – | C#Cc1cnc2c(C)cc(C3=NOC(C)(C(=O)NCc4cnc(C)cn4)C3)cc2c1 (centres unmarked) [compound 535] | 100 | 100% | 100 |
| – | – | – | – | 2.35[a] | – | COC1(C(=O)NC2CC2)CC(c2ccc3ncc(Br)cc3c2)=NO1 (centres unmarked) [compound 508] | 100 | 98% | 94 |
| – | – | 2.92^[a] | – | – | – | C#Cc1cnc2ccc(C3=NOC(C)(C(=O)NC4CC4C4CC4)C3)cc2c1 (centres unmarked) [compound 216] | 99 | 98% | 100 |
| – | – | 2.08^[a] | – | – | – | COc1cnc2ccc(C3=NOC(C)(C(=O)NC(C)C)C3)cc2c1 (centres unmarked) [compound 53] | 99 | 88% | 97 |

Second part, the compound before the results:

| SMILES | log P [2, 5] | Log P ([2]; method [a]: HPLC/LC-MS on reversed phase at pH 2.7, 0.1% formic acid in water and acetonitrile, linear gradient 10% to 95% acetonitrile) | log P [2, 6] | chromatographic logP [2] | log P [2, 7] | log P ([2]; HPLC on reversed phase columns, method [a]: pH 2.7, 0.1% formic acid in water and acetonitrile, linear gradient 10% to 95% acetonitrile) | % of efficacy (protection) [1] [%] | % of efficacy (protection) [3] | % of efficacy (protection) [4] [%] |
| --- | --- | --- | --- | --- | --- | --- | --- | --- | --- |
| CCn1cc(CNC(=O)C2(C)CC(c3cc4cc(Br)cnc4c(F)c3F)=NO2)c(C)n1 (centres unmarked) [compound 17] | – | 2.69^[a] | – | – | – | – | 100 | 85% | 100 |
| CCn1cc(CNC(=O)C2(C(F)F)CC(c3ccc4ncc(Br)cc4c3)=NO2)c(C)n1 (centres unmarked) [compound 621] | 2.64[a] | – | – | – | – | – | 83 | 97% | 97 |
| COC1(C(=O)NC(C)C)CC(c2cc(Cl)c3ncc(Br)cc3c2)=NO1 (centres unmarked) [compound 569] | 3.15[a] | – | – | – | – | – | 100 | 100% | 100 |
| CCOCCCNC(=O)C1(CC)CC(c2ccc3ncc(Br)cc3c2)=NO1 (centres unmarked) [compound 68] | – | – | 3.11^[a] | – | – | – | 98 | 98% | 97 |
| COC1(C(=O)NCc2cnc(C)cn2)CC(c2cc(C)c3ncc(Br)cc3c2)=NO1 (centres unmarked) [compound 596] | 2.78[a] | – | – | – | – | – | 99 | 83% | 100 |
| CCn1cc(CNC(=O)C2(CF)CC(c3ccc4ncc(Br)cc4c3)=NO2)c(C)n1 (centres unmarked) [compound 75] | – | – | 2.31^[a] | – | – | – | 93 | 94% and 98% | – |
| COC1(C(=O)NCC2COC(C)(C)O2)CC(c2cc(Cl)c3ncc(Br)cc3c2)=NO1 (centres unmarked) [compound 568] | 3.11[a] | – | – | – | – | – | 99 | 94% | 100 |
| COC1(C(=O)NCC2COC(C)(C)O2)CC(c2ccc3ncc(Br)cc3c2)=NO1 (centres unmarked) [compound 496] | – | – | – | – | 2.62[a] | – | 99 | 100% | 100 |
| COC1(C(=O)NCC2COC(C)(C)O2)CC(c2ccc3ncc(I)cc3c2)=NO1 (centres unmarked) [compound 483] | – | – | – | – | 2.73[a] | – | 100 | 100% | 100 |
| C=CC1(C(=O)NCC2COC(C)(C)O2)CC(c2ccc3ncc(I)cc3c2)=NO1 (centres unmarked) [compound 729] | – | – | – | – | – | 3.11[a] | 97 | 100% | 100 |
| CCCn1cc(CNC(=O)C2(OC)CC(c3cc(C)c4ncc(Br)cc4c3)=NO2)c(C)n1 (centres unmarked) [compound 595] | 3.27[a] | – | – | – | – | – | 100 | 100% | 100 |
| Cc1cc(C2=NOC(C)(C(=O)NCC3COC(C)(C)O3)C2)cc2cc(Br)cnc12 (centres unmarked) [compound 538] | 3.39[a] | – | – | – | – | – | 100 | 100% | 100 |
| CCOCCCNC(=O)C1(C)CC(c2cc(C)c3ncc(Br)cc3c2)=NO1 (racemic) [compound 547] | 3.48[a] | – | – | – | – | – | 100 | 100% | – |
| COC1(C(=O)NC(C)C)CC(c2ccc3ncc(Br)cc3c2)=NO1 (single isomer, unassigned) [compound 284] | 2.58[a] | – | – | – | – | – | – | 100% | 100 |
| CCOC(=O)CC(C)NC(=O)C1(C)CC(c2ccc3ncc(Br)cc3c2)=NO1 (mixture of isomers) [compound 505] | – | – | – | – | – | – | 75 | 98% | – |
